Data from PubChem BioAssay AID1963856 (Molecular Pharmacology Branch, DTP, NCI, 2024).

Test system: LG0567-F671-PDC KRAS tumor spheroid viability
Assay: Anticancer human tumor LG0567-F671-PDC patient-derived lung adenocarcinoma cell line growth inhibition [KRAS2]
Conditions: spheroids with HUVEC and MSC; for IC50: curve of first compound; for viability, T/C: stronger effect = lower value
In short: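 Combination screen of spheroid viability in tumor-cell co-cultures with endothelial (HUVEC) and mesenchymal stem cell stroma. Each agent was tested in half-log dilutions, topping at clinical Cmax or at 10 microM without a known Cmax.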

[1] = second compound 0.1 µM, first compound 0.01 µM
[2] = second compound 0.1 µM, first compound 0.0316 µM
[3] = second compound 0.1 µM, first compound 0.1 µM
[4] = second compound 0.1 µM, first compound 0.316 µM
[5] = second compound 0.1 µM, first compound 1 µM
[6] = second compound 0.1 µM, first compound 3.16 µM
[7] = second compound 0.316 µM, first compound 0.01 µM
[8] = second compound 0.316 µM, first compound 0.0316 µM
[9] = second compound 0.316 µM, first compound 0.1 µM
[10] = second compound 0.316 µM, first compound 0.316 µM
[11] = second compound 0.316 µM, first compound 1 µM
[12] = second compound 0.316 µM, first compound 3.16 µM
[13] = second compound 1 µM, first compound 0.01 µM
[14] = second compound 1 µM, first compound 0.0316 µM
[15] = second compound 1 µM, first compound 0.1 µM
[16] = second compound 1 µM, first compound 0.316 µM
[17] = second compound 1 µM, first compound 1 µM
[18] = second compound 1 µM, first compound 3.16 µM
[19] = second compound 3.16 µM, first compound 0.01 µM
[20] = second compound 3.16 µM, first compound 0.0316 µM
[21] = second compound 3.16 µM, first compound 0.1 µM
[22] = second compound 3.16 µM, first compound 0.316 µM
[23] = second compound 3.16 µM, first compound 1 µM
[24] = second compound 3.16 µM, first compound 3.16 µM
[25] = second compound 10 µM, first compound 0.0316 µM
[26] = second compound 10 µM, first compound 0.1 µM
[27] = second compound 10 µM, first compound 0.316 µM
[28] = second compound 10 µM, first compound 1 µM
[29] = second compound 10 µM, first compound 3.16 µM
[30] = second compound 0.1 µM, first compound 10 µM
[31] = second compound 0.316 µM, first compound 10 µM
[32] = second compound 1 µM, first compound 10 µM
[33] = second compound 3.16 µM, first compound 10 µM
[34] = second compound 10 µM, first compound 10 µM
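Further: drug exposure lasted seven days after spheroids formed for three days.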
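Wherever viability, T/C is given: 100% = DMSO vehicle control viability.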

| Structure (SMILES) | IC50 (second compound 0.1 µM) | IC50 (second compound 0.316 µM) | IC50 (second compound 1 µM) | IC50 (second compound 3.16 µM) | viability, T/C [2] | viability, T/C [3] | viability, T/C [4] | viability, T/C [5] | viability, T/C [6] | viability, T/C [8] | viability, T/C [9] | viability, T/C [10] | viability, T/C [11] | viability, T/C [12] | viability, T/C [14] | viability, T/C [15] | viability, T/C [16] | viability, T/C [17] | viability, T/C [18] | viability, T/C [20] | other results |
| --- | --- | --- | --- | --- | --- | --- | --- | --- | --- | --- | --- | --- | --- | --- | --- | --- | --- | --- | --- | --- | --- |
| CC1COCCN1c1cc(-c2ccnn2C)c2ccnc(-c3ccn[nH]3)c2n1 (stereo not given) + C=CC(=O)N1CCN(c2nc(=O)n(-c3c(C)ccnc3C(C)C)c3nc(-c4c(O)cccc4F)c(F)cc23)C(C)C1 | < 10 nM | < 10 nM | < 10 nM | < 10 nM | 18.8% | 16% | 14.2% | 11.2% | 10.8% | 18.6% | 14.2% | 11% | 9.77% | 10.6% | 19.3% | 14.3% | 11.3% | 9.8% | 12.5% | 14.9% | IC50 (second compound 10 µM): < 10 nM; viability, T/C [1]: 23.9%; viability, T/C [7]: 21.8%; viability, T/C [13]: 21.3%; viability, T/C [19]: 15.7%; viability, T/C [21]: 12.8%; viability, T/C [22]: 11.3%; viability, T/C [23]: 9.54%; viability, T/C [24]: 10.3%; viability, T/C (second compound 10 µM, first compound 0.01 µM): 19.8%; viability, T/C [25]: 17.4%; viability, T/C [26]: 15.5%; viability, T/C [27]: 14.9%; viability, T/C [28]: 12.2%; viability, T/C [29]: 12.8% |
| CC1OCC2(CCN(c3cnc(Sc4ccnc(N)c4Cl)c(N)n3)CC2)C1N (stereo not given) + C=CC(=O)N1CCN(c2nc(=O)n(-c3c(C)ccnc3C(C)C)c3nc(-c4c(O)cccc4F)c(F)cc23)C(C)C1 | < 31.6 nM | < 31.6 nM | < 31.6 nM | < 31.6 nM | 17.5% | 13.5% | 8.87% | 5.62% | 3.47% | 17.9% | 13.2% | 8.99% | 4.26% | 2.66% | 16.2% | 15.9% | 10.2% | 4.27% | 5.62% | 16.6% | IC50 (second compound 10 µM): < 31.6 nM; viability, T/C [30]: 2.54%; viability, T/C [31]: 2.19%; viability, T/C [32]: 2.9%; viability, T/C [21]: 11.6%; viability, T/C [22]: 7.63%; viability, T/C [23]: 4%; viability, T/C [24]: 1.9%; viability, T/C [33]: 3.71%; viability, T/C [25]: 17.6%; viability, T/C [26]: 13.8%; viability, T/C [27]: 8.61%; viability, T/C [28]: 4.3%; viability, T/C [29]: 3.58%; viability, T/C [34]: 3.08% |
| CCNC(=O)CC1N=C(c2ccc(Cl)cc2)c2cc(OC)ccc2-n2c(C)nnc21 (stereo not given) + C=CC(=O)N1CCN(c2nc(=O)n(-c3c(C)ccnc3C(C)C)c3nc(-c4c(O)cccc4F)c(F)cc23)C(C)C1 | < 31.6 nM | < 31.6 nM | < 31.6 nM | < 31.6 nM | 35% | 33% | 24.3% | 18.5% | 15.2% | 28.9% | 34.7% | 25.1% | 18.7% | 15.3% | 32.7% | 31.1% | 22% | 16% | 15.8% | 25.9% | IC50 (second compound 10 µM): < 31.6 nM; viability, T/C [30]: 12.9%; viability, T/C [31]: 13.2%; viability, T/C [32]: 12.4%; viability, T/C [21]: 30.1%; viability, T/C [22]: 20.9%; viability, T/C [23]: 16.3%; viability, T/C [24]: 12.8%; viability, T/C [33]: 10.2%; viability, T/C [25]: 24.3%; viability, T/C [26]: 26.2%; viability, T/C [27]: 17%; viability, T/C [28]: 10.3%; viability, T/C [29]: 9.13%; viability, T/C [34]: 9.1% |
| Cn1nccc1Nc1nccc(-c2cc3c(s2)C(C)(C)N(CCN2CCOCC2)C3=O)n1 + C=CC(=O)N1CCN(c2nc(=O)n(-c3c(C)ccnc3C(C)C)c3nc(-c4c(O)cccc4F)c(F)cc23)C(C)C1 | < 31.6 nM | < 31.6 nM | < 31.6 nM | < 31.6 nM | 21.2% | 23.1% | 19.2% | 20.8% | 14.1% | 22.2% | 19.8% | 19.9% | 17.8% | 15.6% | 23.1% | 21.8% | 21% | 20.9% | 15% | 22.2% | IC50 (second compound 10 µM): < 31.6 nM; viability, T/C [30]: 16.3%; viability, T/C [31]: 17.2%; viability, T/C [32]: 20.8%; viability, T/C [21]: 18.1%; viability, T/C [22]: 20.3%; viability, T/C [23]: 12.2%; viability, T/C [24]: 14%; viability, T/C [33]: 20.9%; viability, T/C [25]: 20.5%; viability, T/C [26]: 19.2%; viability, T/C [27]: 14.5%; viability, T/C [28]: 12.2%; viability, T/C [29]: 15.2%; viability, T/C [34]: 26.8% |
| CC(=O)OC12COC1CC(O)C1(C)C(=O)C(O)C3=C(C)C(OC(=O)C(O)C(NC(=O)OC(C)(C)C)c4ccccc4)CC(O)(C(OC(=O)c4ccccc4)C21)C3(C)C (stereo not given) + C=CC(=O)N1CCN(c2nc(OCC3CCCN3C)nc3c2CCN(c2cccc4cccc(C)c24)C3)CC1CC#N | < 10 nM | < 10 nM | < 10 nM | < 10 nM | 13.2% | 16.1% | 16.5% | 19.4% | 15.8% | 13.9% | 15.7% | 13.8% | 16.9% | 14.7% | 15.4% | 15.9% | 15.3% | 16.8% | 14.4% | 37.1% | IC50 (second compound 0.0316 µM): < 10 nM; viability, T/C (second compound 0.0316 µM, first compound 0.01 µM): 18.9%; viability, T/C (second compound 0.0316 µM, first compound 0.0316 µM): 16.2%; viability, T/C (second compound 0.0316 µM, first compound 0.1 µM): 18.9%; viability, T/C (second compound 0.0316 µM, first compound 0.316 µM): 21.9%; viability, T/C (second compound 0.0316 µM, first compound 1 µM): 22.9%; viability, T/C (second compound 0.0316 µM, first compound 3.16 µM): 19.9%; viability, T/C [1]: 14.5%; viability, T/C [7]: 15.8%; viability, T/C [13]: 16.6%; viability, T/C [19]: 40.1%; viability, T/C [21]: 25.7%; viability, T/C [22]: 36.4%; viability, T/C [23]: 33.6%; viability, T/C [24]: 36.6% |
